In experiment [1] the target is Dual specificity mitogen-activated protein kinase kinase 1 (Homo sapiens, UniProt Q02750). Kind of experiment: Navigating the Kinome. Panel member name: MAP2K1. In kind it is functional.
Experiment [2] concerns the target Serine/threonine-protein kinase pim-1 (Homo sapiens, UniProt P11309). In kind it is functional.
The target in experiment [3] is Leucine-rich repeat serine/threonine-protein kinase 2 (Homo sapiens, UniProt Q5S007). It is filed as functional.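 Note: value from a broad kinome-wide panel profiling study in which LRRK2 was one of the kinases tested.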
Experiment [4] has as its target Dual specificity mitogen-activated protein kinase kinase 2 (Homo sapiens, UniProt P36507). The experiment is described as follows: Navigating the Kinome. Panel member name: MAP2K2. It is filed as functional.
In experiment [5] the target is Inhibitor of nuclear factor kappa-B kinase subunit epsilon (Homo sapiens, UniProt Q14164). Kind of experiment: Navigating the Kinome. Panel member name: IKBKE. It is filed as functional.
The target of experiment [6] is Leukocyte tyrosine kinase receptor (Homo sapiens, UniProt P29376). Kind of experiment: Navigating the Kinome. Panel member name: LTK. In kind it is functional.
The target of experiment [7] is Mitogen-activated protein kinase 14 (Homo sapiens, UniProt Q16539). In kind it is functional.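 Note: part of a kinome-wide panel, MAPK14 entry.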
Experiment [8] deals with Phosphorylase b kinase gamma catalytic chain, liver/testis isoform (Homo sapiens, UniProt P15735). In kind it is functional.
Experiment [9] has as its target Serine/threonine-protein kinase PLK3 (Homo sapiens, UniProt Q9H4B4). In kind it is functional.
In experiment [10] the target is RAC-gamma serine/threonine-protein kinase (Homo sapiens, UniProt Q9Y243). It is filed as functional.
The target of experiment [11] is Eukaryotic elongation factor 2 kinase (Homo sapiens, UniProt O00418). It is filed as functional.
Experiment [12] deals with Tyrosine-protein kinase Lck (Homo sapiens, UniProt P06239). It is filed as functional.
Experiment [13] has as its target MAP kinase-activated protein kinase 2 (Homo sapiens, UniProt P49137). In kind it is functional.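 Note: measured as one member of a kinome-wide kinase panel.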
Experiment [14] addresses Mast/stem cell growth factor receptor Kit (Homo sapiens, UniProt P10721). In kind it is functional.
The target in experiment [15] is Casein kinase I isoform gamma-1 (Homo sapiens, UniProt Q9HCP0). In kind it is functional.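 Note: measured as the CSNK1G1 member of a kinome profiling panel.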
The target of experiment [16] is Tyrosine-protein kinase Lyn (Homo sapiens, UniProt P07948). It is filed as functional.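 Note: lyn as one member of a kinase panel.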
For experiment [17], the target named is LIM domain kinase 1 (Homo sapiens, UniProt P53667). The experiment is described as follows: Navigating the Kinome. Panel member name: LIMK1. In kind it is functional.
The target of experiment [18] is Proto-oncogene tyrosine-protein kinase ROS (Homo sapiens, UniProt P08922). It is filed as functional.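 Note: ROS1 tested as one member of a kinome-wide kinase panel.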
The target in experiment [19] is Dual specificity tyrosine-phosphorylation-regulated kinase 3 (Homo sapiens, UniProt O43781). It is filed as functional.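 Note: measured as one member of a broad kinase panel.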
For experiment [20], the target named is MAP kinase-activated protein kinase 3 (Homo sapiens, UniProt Q16644). It is filed as functional.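 Note: value comes from a kinome-wide profiling panel in which MAPKAPK3 is one of the panel members.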
Experiment [21] has as its target Tyrosine-protein kinase ABL1 (Homo sapiens, UniProt P00519). It is filed as functional.
In experiment [22] the target is MAP kinase-interacting serine/threonine-protein kinase 2 (Homo sapiens, UniProt Q9HBH9). It is filed as functional.
Experiment [23] concerns the target Mitogen-activated protein kinase 1 (Homo sapiens, UniProt P28482). In kind it is functional.
For experiment [24], the target named is Misshapen-like kinase 1 (Homo sapiens, UniProt Q8N4C8). It is filed as functional.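 Note: kinome panel screen with MINK as the panel member.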
Experiment [25] addresses Protein-tyrosine kinase 6 (Homo sapiens, UniProt Q13882). It is filed as functional.
For experiment [26], the target named is Vascular endothelial growth factor receptor 3 (Homo sapiens, UniProt P35916). In kind it is functional.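 Note: value from a kinome-wide profiling panel, with FLT4 as the panel member.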
Experiment [27] deals with Tyrosine-protein kinase Fer (Homo sapiens, UniProt P16591). It is filed as functional.
Experiment [28] has as its target 3-phosphoinositide-dependent protein kinase 1 (Homo sapiens, UniProt O15530). In kind it is functional.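 Note: value comes from the Navigating the Kinome panel, PDPK1 member.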
Experiment [29] addresses Serine/threonine-protein kinase DCLK1 (Homo sapiens, UniProt O15075). It is filed as functional.
Experiment [30] concerns the target STE20-like serine/threonine-protein kinase (Homo sapiens, UniProt Q9H2G2). It is filed as functional.
Experiment [31] concerns the target Receptor tyrosine-protein kinase erbB-4 (Homo sapiens, UniProt Q15303). In kind it is functional.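 Note: ERBB4 member of a kinome-wide kinase profiling panel.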
The target of experiment [32] is Tyrosine-protein kinase FRK (Homo sapiens, UniProt P42685). In kind it is functional.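 Note: FRK tested as one member of a kinome panel.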
The target of experiment [33] is Melanocortin receptor 4 (Homo sapiens, UniProt P32245). Kind of experiment: MC4R antagonist potency on cAMP, dose response, cell-based, TR-FRET, biased antagonists (AID 602298).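 Note: antagonist potency against agonist-stimulated cAMP production.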 In kind it is functional. For orientation: In TR-FRET formats the signal depends on donor and acceptor labels being close together.
In experiment [34] the target is T1, Microphthalmia-associated transcription factor (Homo sapiens, UniProt O75030).
T1 sequence (O75030 whole entry): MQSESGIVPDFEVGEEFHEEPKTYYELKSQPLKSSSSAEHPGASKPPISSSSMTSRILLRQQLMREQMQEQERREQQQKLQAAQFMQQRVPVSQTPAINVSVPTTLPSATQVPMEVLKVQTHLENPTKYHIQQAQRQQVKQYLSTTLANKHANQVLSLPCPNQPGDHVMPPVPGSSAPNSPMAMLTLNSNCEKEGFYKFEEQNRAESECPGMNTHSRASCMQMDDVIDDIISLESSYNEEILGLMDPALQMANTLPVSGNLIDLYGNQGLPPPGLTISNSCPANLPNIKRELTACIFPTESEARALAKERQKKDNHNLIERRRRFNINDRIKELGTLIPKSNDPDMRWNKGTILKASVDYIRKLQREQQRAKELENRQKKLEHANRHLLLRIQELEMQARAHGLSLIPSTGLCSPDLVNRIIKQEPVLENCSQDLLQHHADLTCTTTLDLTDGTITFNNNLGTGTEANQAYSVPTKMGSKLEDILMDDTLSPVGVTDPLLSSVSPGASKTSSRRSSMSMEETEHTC
Kind of experiment: TRPM1 promoter luciferase signal decrease, dose response, MITF inhibitor project, cell-based, SK-MEL-5, cherry-picked, set 3 (AID 493073).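 Note: SK-MEL-5 melanoma cells with luciferase driven by the MITF target TRPM1 promoter.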 In kind it is functional.

The test system of experiment [35] is H4. Kind of experiment: Luminescence Cell-Based Dose Response HTS to Identify Activators of 5'UTR Stem-Loop Driven Prion Protein mRNA Translation in H4 Neuroglioblastoma Cells. [Related pubchem assays: 1829 (Project Summary), 1814 (Primary HTS)]. In kind it is functional. Particulars: Homo sapiens.
Experiment [36] is described as follows: cytotoxicity in HEK-293T cells, dose response, cytotoxicity control for TCR NF-kB inhibitor project, luminescence, T-cell screen hits (AID 489026).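 Note: cells exposed to compound about 14 hours before the viability readout.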 In kind it is functional, cell-based.
Experiment [37] concerns the target Nonstructural protein 1 (Influenza A virus, UniProt Q194T2). In kind it is functional, Influenza A virus (A/California/07/2009(H1N1)).

Activity calls are given as the source filed them.

Chain of Leukocyte tyrosine kinase receptor (P29376 whole entry): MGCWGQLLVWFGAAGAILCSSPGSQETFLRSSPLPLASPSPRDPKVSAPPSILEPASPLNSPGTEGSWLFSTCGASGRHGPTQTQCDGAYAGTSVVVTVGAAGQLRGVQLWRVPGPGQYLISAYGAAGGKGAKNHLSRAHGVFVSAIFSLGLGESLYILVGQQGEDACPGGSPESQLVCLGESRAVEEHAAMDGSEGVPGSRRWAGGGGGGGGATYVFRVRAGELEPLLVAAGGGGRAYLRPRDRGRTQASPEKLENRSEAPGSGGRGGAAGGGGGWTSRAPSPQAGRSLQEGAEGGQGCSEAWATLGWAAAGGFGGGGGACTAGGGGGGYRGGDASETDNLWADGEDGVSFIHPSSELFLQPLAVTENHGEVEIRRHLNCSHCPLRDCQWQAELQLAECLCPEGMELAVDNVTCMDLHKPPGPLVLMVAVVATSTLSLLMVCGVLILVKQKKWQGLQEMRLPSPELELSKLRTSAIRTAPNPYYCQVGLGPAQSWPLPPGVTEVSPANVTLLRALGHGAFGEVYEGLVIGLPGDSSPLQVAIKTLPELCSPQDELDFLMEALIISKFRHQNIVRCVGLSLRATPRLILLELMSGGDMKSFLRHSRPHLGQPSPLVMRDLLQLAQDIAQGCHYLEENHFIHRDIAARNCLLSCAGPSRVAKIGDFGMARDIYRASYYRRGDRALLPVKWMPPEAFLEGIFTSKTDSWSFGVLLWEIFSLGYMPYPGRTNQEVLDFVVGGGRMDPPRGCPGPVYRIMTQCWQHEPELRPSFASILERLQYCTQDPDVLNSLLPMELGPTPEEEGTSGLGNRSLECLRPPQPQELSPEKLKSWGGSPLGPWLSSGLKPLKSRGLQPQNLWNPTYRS
Chain of Proto-oncogene tyrosine-protein kinase ROS (P08922 whole entry): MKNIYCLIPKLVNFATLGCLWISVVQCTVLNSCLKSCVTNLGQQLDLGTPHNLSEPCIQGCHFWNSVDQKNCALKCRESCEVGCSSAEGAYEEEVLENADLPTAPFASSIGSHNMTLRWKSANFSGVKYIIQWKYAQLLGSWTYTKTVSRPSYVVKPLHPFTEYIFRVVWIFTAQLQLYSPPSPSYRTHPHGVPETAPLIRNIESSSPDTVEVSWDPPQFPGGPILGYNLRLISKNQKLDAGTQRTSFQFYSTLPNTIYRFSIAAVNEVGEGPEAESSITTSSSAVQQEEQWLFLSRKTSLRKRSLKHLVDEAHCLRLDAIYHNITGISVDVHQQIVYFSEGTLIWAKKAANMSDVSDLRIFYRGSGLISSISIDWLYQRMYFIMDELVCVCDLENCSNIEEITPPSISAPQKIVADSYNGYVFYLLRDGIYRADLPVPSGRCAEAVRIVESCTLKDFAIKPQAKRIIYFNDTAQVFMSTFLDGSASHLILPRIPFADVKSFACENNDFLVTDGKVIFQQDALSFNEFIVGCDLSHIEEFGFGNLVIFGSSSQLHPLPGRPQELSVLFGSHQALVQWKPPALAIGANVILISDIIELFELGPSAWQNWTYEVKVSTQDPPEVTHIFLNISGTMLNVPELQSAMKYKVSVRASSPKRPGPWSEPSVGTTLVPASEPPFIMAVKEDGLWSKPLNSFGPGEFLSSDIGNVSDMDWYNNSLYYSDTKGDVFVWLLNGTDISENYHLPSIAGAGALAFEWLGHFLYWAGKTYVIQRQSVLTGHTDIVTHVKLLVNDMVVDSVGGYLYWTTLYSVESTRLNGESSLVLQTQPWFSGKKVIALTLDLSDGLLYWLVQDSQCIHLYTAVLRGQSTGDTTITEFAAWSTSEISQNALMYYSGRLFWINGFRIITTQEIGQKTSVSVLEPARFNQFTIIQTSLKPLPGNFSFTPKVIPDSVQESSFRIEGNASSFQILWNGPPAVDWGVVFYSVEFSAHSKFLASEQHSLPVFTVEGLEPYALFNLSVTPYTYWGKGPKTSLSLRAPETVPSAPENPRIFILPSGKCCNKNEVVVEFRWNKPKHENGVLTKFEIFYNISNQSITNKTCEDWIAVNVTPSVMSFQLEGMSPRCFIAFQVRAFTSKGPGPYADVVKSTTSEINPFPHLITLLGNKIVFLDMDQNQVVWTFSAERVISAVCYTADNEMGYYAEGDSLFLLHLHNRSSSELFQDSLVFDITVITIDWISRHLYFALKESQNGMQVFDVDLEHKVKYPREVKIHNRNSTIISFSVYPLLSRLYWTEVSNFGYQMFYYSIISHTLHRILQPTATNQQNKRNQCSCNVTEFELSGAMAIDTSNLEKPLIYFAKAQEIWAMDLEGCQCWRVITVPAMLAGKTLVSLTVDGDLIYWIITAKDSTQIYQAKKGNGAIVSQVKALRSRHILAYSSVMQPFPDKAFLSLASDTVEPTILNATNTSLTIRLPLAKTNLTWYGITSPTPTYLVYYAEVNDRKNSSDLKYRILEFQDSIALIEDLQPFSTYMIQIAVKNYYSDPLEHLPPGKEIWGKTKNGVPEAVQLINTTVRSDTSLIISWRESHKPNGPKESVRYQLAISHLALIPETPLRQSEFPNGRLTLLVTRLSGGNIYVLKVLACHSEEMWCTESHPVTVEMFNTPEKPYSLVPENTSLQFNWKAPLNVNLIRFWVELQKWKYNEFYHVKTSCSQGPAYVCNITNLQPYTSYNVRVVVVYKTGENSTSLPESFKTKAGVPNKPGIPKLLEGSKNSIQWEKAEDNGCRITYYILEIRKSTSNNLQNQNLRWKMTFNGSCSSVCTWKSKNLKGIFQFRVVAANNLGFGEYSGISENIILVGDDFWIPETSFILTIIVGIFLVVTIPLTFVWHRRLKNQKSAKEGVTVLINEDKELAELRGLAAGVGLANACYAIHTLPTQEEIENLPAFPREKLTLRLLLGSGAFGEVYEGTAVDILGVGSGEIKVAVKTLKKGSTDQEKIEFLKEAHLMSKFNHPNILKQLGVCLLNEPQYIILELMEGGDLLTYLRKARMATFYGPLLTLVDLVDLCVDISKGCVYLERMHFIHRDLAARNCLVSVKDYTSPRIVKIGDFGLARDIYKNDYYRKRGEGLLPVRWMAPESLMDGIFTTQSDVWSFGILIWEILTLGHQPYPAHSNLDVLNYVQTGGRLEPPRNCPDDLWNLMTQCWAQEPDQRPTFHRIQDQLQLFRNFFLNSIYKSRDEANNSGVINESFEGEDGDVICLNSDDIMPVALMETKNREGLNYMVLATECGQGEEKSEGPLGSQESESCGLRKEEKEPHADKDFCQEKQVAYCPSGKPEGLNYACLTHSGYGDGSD
Chain of MAP kinase-interacting serine/threonine-protein kinase 2 (Q9HBH9 whole entry): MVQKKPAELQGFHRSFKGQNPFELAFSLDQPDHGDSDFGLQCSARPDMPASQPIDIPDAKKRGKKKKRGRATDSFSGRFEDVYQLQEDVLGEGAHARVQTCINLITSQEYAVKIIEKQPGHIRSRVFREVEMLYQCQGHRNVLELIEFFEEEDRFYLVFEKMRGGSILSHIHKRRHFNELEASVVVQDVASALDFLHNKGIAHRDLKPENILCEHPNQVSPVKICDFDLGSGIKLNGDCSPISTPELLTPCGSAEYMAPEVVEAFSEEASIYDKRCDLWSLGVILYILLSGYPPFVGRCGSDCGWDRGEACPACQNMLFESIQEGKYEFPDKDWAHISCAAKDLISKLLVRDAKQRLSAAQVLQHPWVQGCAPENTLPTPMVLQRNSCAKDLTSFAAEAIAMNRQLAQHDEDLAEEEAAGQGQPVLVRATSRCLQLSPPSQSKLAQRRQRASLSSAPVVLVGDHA
Chain of Casein kinase I isoform gamma-1 (Q9HCP0 whole entry, canonical isoform): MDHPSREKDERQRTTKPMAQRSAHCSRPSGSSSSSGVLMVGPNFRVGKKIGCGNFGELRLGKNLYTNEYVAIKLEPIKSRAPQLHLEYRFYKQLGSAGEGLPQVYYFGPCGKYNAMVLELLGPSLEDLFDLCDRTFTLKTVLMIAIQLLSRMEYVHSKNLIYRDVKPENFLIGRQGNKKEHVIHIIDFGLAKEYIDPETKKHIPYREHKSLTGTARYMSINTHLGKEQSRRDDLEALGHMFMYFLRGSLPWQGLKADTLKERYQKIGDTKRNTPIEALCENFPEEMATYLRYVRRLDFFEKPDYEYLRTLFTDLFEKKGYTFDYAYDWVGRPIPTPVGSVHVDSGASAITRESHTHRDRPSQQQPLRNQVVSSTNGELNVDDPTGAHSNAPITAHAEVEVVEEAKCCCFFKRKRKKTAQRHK
Chain of Serine/threonine-protein kinase pim-1 (P11309 whole entry): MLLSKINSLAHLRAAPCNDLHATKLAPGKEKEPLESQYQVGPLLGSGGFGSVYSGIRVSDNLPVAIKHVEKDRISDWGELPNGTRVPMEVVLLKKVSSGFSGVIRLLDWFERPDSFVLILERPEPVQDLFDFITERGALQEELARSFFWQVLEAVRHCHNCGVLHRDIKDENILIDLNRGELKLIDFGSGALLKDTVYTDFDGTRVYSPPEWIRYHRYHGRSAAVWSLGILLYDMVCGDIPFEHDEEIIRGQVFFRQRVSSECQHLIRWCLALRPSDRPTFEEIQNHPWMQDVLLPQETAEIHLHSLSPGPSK
Chain of Dual specificity tyrosine-phosphorylation-regulated kinase 3 (O43781 whole entry): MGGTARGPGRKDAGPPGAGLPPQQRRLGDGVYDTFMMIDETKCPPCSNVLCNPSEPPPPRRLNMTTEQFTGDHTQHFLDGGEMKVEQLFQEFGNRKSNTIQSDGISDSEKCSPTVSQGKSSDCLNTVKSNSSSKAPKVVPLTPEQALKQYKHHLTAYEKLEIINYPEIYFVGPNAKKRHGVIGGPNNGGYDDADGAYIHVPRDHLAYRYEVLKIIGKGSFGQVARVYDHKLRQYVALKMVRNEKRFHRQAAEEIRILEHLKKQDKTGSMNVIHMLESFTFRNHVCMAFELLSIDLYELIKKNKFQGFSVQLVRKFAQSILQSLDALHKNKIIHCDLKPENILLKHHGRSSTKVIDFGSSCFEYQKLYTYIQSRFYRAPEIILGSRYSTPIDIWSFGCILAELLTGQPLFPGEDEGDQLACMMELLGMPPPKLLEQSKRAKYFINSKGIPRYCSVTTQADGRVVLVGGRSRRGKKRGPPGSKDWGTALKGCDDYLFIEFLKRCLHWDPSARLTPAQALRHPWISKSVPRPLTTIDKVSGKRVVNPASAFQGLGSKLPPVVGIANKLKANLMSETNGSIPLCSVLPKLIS

Consider `CCn1c(-c2nonc2N)nc2cncc(C(=O)N3CCC(N)C3)c21` (configuration not stated), for which the Ki (commonly a measure of affinity in units of concentration, obtained from inhibition or displacement) is > 2510 nM (inactive) in experiment [1]; 20 nM (active) in experiment [2]; 631 nM (active) in experiment [3]; > 3980 nM (inactive) in experiment [4]; > 3160 nM (inactive) in experiment [5]; > 2510 nM (inactive) in experiment [6]. Further, the Ki in experiment [7] was > 3980 nM (inactive).

`Cc1[nH]nc2ccc(-c3cncc(OCC(N)Cc4c[nH]c5ccccc45)c3)cc12` (configuration not stated): the inhibitory constant (Ki) in experiment [8] is 1000 nM (active); in experiment [9], > 7940 nM (inactive); in experiment [10] it was 6.31 nM (active); in experiment [11], > 3980 nM (inactive); in experiment [12] it was > 2510 nM (inactive); in experiment [13] it was 2510 nM (active). The Ki is > 1260 nM (inactive) in experiment [14]; 39.8 nM (active) in experiment [15]; 1580 nM (active) in experiment [16]; 794 nM (active) in [17]; 794 nM (active) in experiment [18]; 794 nM (active) in experiment [19]. For the same compound, the Ki in experiment [20] is > 10000 nM (inactive); in experiment [21], > 631 nM (inactive); in experiment [22], 3980 nM (active); in experiment [23] it was 316 nM (active); in [24], 20 nM (active); in experiment [25], > 2510 nM (inactive). Besides, the inhibition constant (Ki) is 1580 nM (active) in experiment [26]; > 1580 nM (inactive) in experiment [27]; 1580 nM (active) in experiment [28]; 6310 nM (active) in experiment [29]; > 10000 nM (inactive) in [30]; > 3980 nM (inactive) in experiment [31]. In addition, the Ki in [32] is > 2510 nM (inactive).

For `CCCCCCCCCCC[N+](C)(C)CC/C=C1/c2ccccc2Sc2ccc(Cl)cc21`, the IC50 (usually the concentration needed to halve the response being measured) in experiment [33] is 24300 nM (inactive).

`Cc1cc(C)c[n+](C2=C([N-]S(=O)(=O)c3cccs3)C(=O)c3ccccc3C2=O)c1`: the concentration at half-maximal activity (AC50) – broadly, the concentration giving half of the maximal activity seen – in [34] is 2950 nM (active).

As for `COC(=O)c1ccccc1NC1=C/C(=N\S(=O)(=O)c2cccs2)c2ccccc2C1=O`, the EC50 (as a rule, the concentration giving half of the maximal effect) in experiment [35] was 1890 nM (active). For the same compound, the IC50 in experiment [36] was 980 nM (active); in experiment [37] it was 5160 nM (active).

The values above are taken from ChEMBL document CHEMBL1201862, “PubChem BioAssay data set” (2004).
